Where two headings read alike, the source gives them in different places.
Columns and labels:
FASN enzyme = FASN enzyme (Homo sapiens, UniProt P49327); test: Enzymatic Assay for FASN Inhibitors; assay type: biochemical
Outline: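 40 nM FASN preincubated with compound 60 min at 25° C in HEPES pH 7.3 buffer with 0.04% Triton X-100. Then 20 μM acetyl-CoA, 60 μM malonyl-CoA and 100 μM NADPH added for 90 min, quenched with CPM thiol probe; fluorescence 360/530 nm, IC50 by four-parameter fit.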

PC3 cells = test: Cell Proliferation Assays for FASN Inhibitors (PC3 cells, MTT); assay type: cell-based; conditions: Homo sapiens, PC-3, 96 h
Outline: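 PC3 cells seeded overnight, then exposed to compound for 4 days at 37 °C in F12K with 10% lipid-reduced serum, 0.1% final DMSO. Viability read by MTT; IC50 from four-parameter logistic fit of dose–response.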

[1] = read-out: IC50 (uM) < 0.5, 10% lipid reduced serum, 4 days, Table 3-1

Chain of FASN enzyme (P49327 whole entry): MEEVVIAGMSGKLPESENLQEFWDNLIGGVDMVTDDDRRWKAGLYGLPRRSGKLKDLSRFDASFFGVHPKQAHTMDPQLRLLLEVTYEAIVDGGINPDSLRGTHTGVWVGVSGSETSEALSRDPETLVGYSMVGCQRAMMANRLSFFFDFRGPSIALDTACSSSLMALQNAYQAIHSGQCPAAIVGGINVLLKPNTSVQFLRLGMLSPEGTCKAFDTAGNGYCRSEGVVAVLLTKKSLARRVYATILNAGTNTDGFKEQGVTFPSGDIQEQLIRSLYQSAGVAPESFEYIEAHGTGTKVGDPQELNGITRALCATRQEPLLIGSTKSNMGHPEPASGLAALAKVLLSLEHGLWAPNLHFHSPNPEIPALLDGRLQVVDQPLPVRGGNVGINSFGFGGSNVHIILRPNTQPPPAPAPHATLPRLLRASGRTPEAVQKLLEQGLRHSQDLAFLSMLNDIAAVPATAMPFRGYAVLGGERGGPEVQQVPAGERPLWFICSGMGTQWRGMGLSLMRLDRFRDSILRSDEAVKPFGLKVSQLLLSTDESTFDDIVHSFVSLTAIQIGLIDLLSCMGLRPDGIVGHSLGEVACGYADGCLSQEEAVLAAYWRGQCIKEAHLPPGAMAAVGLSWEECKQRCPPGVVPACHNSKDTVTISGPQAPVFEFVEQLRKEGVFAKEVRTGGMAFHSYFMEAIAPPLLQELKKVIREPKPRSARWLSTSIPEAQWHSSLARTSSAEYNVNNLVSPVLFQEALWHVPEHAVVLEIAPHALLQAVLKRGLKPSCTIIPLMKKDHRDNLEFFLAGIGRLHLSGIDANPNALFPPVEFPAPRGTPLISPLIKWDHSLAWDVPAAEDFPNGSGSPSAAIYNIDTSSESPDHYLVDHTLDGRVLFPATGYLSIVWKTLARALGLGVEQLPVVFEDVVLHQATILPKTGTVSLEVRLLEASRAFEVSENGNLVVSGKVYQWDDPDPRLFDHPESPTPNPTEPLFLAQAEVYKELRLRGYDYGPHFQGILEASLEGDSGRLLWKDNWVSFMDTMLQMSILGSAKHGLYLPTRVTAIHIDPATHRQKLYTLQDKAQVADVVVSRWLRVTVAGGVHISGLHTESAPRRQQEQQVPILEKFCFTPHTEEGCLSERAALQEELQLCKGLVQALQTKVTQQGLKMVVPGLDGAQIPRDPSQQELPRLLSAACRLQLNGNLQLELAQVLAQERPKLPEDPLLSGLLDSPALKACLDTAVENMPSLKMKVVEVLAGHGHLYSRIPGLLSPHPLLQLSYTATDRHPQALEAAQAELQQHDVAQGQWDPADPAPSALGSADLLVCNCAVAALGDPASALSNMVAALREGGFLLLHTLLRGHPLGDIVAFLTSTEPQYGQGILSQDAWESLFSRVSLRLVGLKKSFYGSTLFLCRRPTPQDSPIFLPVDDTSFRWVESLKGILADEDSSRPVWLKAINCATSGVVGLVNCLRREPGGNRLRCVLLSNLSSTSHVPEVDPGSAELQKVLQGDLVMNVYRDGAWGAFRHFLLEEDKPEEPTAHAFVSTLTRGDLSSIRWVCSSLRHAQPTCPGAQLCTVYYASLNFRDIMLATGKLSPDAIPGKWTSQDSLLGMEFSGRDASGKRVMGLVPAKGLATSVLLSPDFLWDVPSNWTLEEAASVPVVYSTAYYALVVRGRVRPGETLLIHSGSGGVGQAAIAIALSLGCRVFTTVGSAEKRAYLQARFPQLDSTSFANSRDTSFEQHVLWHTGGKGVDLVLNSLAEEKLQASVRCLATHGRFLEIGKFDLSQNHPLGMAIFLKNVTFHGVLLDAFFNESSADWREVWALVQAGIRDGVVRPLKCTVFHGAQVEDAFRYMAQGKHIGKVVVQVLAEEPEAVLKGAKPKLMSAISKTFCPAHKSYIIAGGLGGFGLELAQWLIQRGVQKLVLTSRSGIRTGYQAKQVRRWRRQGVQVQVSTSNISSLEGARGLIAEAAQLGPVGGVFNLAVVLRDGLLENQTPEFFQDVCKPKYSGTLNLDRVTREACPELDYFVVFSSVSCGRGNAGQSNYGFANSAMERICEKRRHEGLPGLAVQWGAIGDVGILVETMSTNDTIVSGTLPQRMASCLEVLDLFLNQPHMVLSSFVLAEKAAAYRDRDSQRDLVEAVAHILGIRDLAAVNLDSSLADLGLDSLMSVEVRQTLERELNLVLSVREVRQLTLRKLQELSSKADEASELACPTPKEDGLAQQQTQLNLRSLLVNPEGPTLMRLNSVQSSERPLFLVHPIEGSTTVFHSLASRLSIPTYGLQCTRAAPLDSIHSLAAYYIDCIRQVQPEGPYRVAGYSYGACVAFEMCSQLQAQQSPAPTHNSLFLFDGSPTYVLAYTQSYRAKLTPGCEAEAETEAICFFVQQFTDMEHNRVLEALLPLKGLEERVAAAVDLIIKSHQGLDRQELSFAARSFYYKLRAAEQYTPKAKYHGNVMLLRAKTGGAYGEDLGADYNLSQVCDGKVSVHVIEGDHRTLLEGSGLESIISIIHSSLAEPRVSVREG

Compound	IC50 (FASN enzyme)	IC50 (PC3 cells; [1])	IC50 (FASN enzyme; FASN enzymatic assay, Table 2-2)	IC50 (PC3 cells; read-out: IC50 (uM) ≥ 0.5, 10% lipid reduced serum, 4 days, Table 3-2)
CC(C)n1cc(C#N)c2cc(-c3ccc(C(=O)N4CCN(C(=O)C5(O)CC5)CC4)cc3)ccc21	< 500 nM	< 0.5 µM		
COc1ccc2nc(-c3ccc(C(=O)N4CCN(C(=O)C5(O)CC5)CC4)c(F)c3)ccc2c1 [1-[(4-{[2-fluoro-4-(6-methoxyquinolin-2-yl)phenyl]carbonyl}piperazin-1-yl)carbonyl]cyclopropan-1-ol]	< 500 nM	< 0.5 µM		
Cc1cc(C(=O)N2CCN(C(=O)C3(O)CC3)CC2)ccc1-c1cnc2ccccc2c1 [1-[(4-{[3-methyl-4-(quinolin-3-yl)phenyl]carbonyl}piperazin-1-yl)carbonyl]cyclopropan-1-ol]	< 500 nM	< 0.5 µM		
Cc1cc(C(=O)N2CCN(C(=O)C3(O)CC3)CC2)ccc1-c1ccc2c(ccn2C)c1 [1-[(4-{[3-methyl-4-(1-methyl-1H-indol-5-yl)phenyl]carbonyl}piperazin-1-yl)carbonyl]cyclopropan-1-ol]	< 500 nM	< 0.5 µM		
O=C(c1ccc(-c2ccc3nccn3n2)cc1)N1CCN(C(=O)C2(O)CC2)CC1 [1-({4-[(4-{imidazo[1,2-b]pyridazin-6-yl}phenyl)carbonyl]piperazin-1-yl}carbonyl)cyclopropan-1-ol]	< 500 nM	< 0.5 µM		
Cc1cc(C(=O)N2CCN(C(=O)C3(O)CC3)CC2)ccc1-c1ccc2ncccc2c1 [1-[(4-{[3-methyl-4-(quinolin-6-yl)phenyl]carbonyl}piperazin-1-yl)carbonyl]cyclopropan-1-ol]	< 500 nM	< 0.5 µM		
Cn1ccc2cc(-c3ccc(C(=O)N4CCN(C(=O)C5(O)CC5)CC4)c(Cl)c3)ccc21 [1-[(4-{[2-chloro-4-(1-methyl-1H-indol-5-yl)phenyl]carbonyl}piperazin-1-yl)carbonyl]cyclopropan-1-ol]	< 500 nM	< 0.5 µM		
O=C(c1ccc(-c2nc3ccccc3[nH]2)cc1)N1CCN(C(=O)C2(O)CC2)CC1		< 0.5 µM	500 to 5000 nM	
O=C(c1ccc(-c2ccc3scnc3c2)cc1Cl)N1CCN(C(=O)C2(O)CC2)CC1 [1-[(4-{[4-(1,3-benzothiazol-5-yl)-2-chlorophenyl]carbonyl}piperazin-1-yl)carbonyl]cyclopropan-1-ol]	< 500 nM	< 0.5 µM		
Cn1ccc2cc(-c3ccc(C(=O)N4CCN(C(=O)C5(O)CC5)CC4)c(F)c3)ccc21 [1-[(4-{[2-fluoro-4-(1-methyl-1H-indol-5-yl)phenyl]carbonyl}piperazin-1-yl)carbonyl]cyclopropan-1-ol]	< 500 nM	< 0.5 µM		
O=C(c1ccc(-c2ccc3scnc3c2)c(Cl)c1)N1CCN(C(=O)C2(O)CC2)CC1 [1-[(4-{[4-(1,3-benzothiazol-5-yl)-3-chlorophenyl]carbonyl}piperazin-1-yl)carbonyl]cyclopropan-1-ol]	< 500 nM	< 0.5 µM		
Cn1ccc2cc(-c3ccc(C(=O)N4CCN(C(=O)C5(O)CC5)CC4)cc3Cl)ccc21 [1-[(4-{[3-chloro-4-(1-methyl-1H-indol-5-yl)phenyl]carbonyl}piperazin-1-yl)carbonyl]cyclopropan-1-ol]	< 500 nM	< 0.5 µM		
O=C(c1ccc(-c2cn3ccccc3n2)cc1)N1CCN(C(=O)C2(O)CC2)CC1	< 500 nM	< 0.5 µM		
N#Cc1c[nH]c2ccc(-c3ccc(C(=O)N4CCN(C(=O)C5(O)CC5)CC4)c(Cl)c3)cc12	< 500 nM	< 0.5 µM		
O=C(c1ccc2nc(-c3ccccc3)sc2c1)N1CCN(C(=O)C2(O)CC2)CC1 [1-({4-[(2-phenyl-1,3-benzothiazol-6-yl)carbonyl]piperazin-1-yl}carbonyl)cyclopropan-1-ol]	< 500 nM	< 0.5 µM		
O=C(c1ccc(-c2cnc3ccccc3c2)c(Cl)c1)N1CCN(C(=O)C2(O)CC2)CC1 [1-[(4-{[3-chloro-4-(quinolin-3-yl)phenyl]carbonyl}piperazin-1-yl)carbonyl]cyclopropan-1-ol]	< 500 nM	< 0.5 µM		
O=C(c1ccc(-c2cc3ccccn3n2)cc1)N1CCN(C(=O)C2(O)CC2)CC1	< 500 nM	< 0.5 µM		
O=C(c1ccc(-c2nc3ccccc3s2)cc1)N1CCN(C(=O)C2(O)CC2)CC1 [1-[(4-{[4-(1,3-benzothiazol-2-yl)phenyl]carbonyl}piperazin-1-yl)carbonyl]cyclopropan-1-ol]	< 500 nM	< 0.5 µM		

Results, then the compound that gave them:

IC50 (FASN enzyme)	IC50 (PC3 cells; [1])	IC50 (FASN enzyme; FASN enzymatic assay, Table 2-2)	IC50 (PC3 cells; read-out: IC50 (uM) ≥ 0.5, 10% lipid reduced serum, 4 days, Table 3-2)	Compound
< 500 nM	< 0.5 µM			O=C(c1ccc(-c2ccc3scnc3c2)cc1)N1CCN(C(=O)C2(O)CC2)CC1 [1-[(4-{[4-(1,3-benzothiazol-5-yl)phenyl]carbonyl}piperazin-1-yl)carbonyl]cyclopropan-1-ol]
< 500 nM	< 0.5 µM			N#Cc1ccc2nc(-c3ccc(C(=O)N4CCN(C(=O)C5(O)CC5)CC4)cc3)oc2c1 [2-[4-({4-[(1-hydroxycyclopropyl)carbonyl]piperazin-1-yl}carbonyl)phenyl]-1,3-benzoxazole-6-carbonitrile]
< 500 nM	< 0.5 µM			O=C(c1ccc(-c2cnc3ccccc3c2)cc1)N1CCN(C(=O)C2(O)CCC2)CC1 [1-[(4-{[4-(quinolin-3-yl)phenyl]carbonyl}piperazin-1-yl)carbonyl]cyclobutan-1-ol]
< 500 nM	< 0.5 µM			O=C(c1ccc(-c2ccc(Cl)cc2F)cc1)N1CCN(C(=O)C2(O)CC2)CC1 [1-[(4-{[4-(4-chloro-2-fluorophenyl)phenyl]carbonyl}piperazin-1-yl)carbonyl]cyclopropan-1-ol]
< 500 nM	< 0.5 µM			O=C(c1ccc(-c2ccc3ccccc3n2)cc1)N1CCN(C(=O)C2(O)CC2)CC1 [1-[(4-{[4-(quinolin-2-yl)phenyl]carbonyl}piperazin-1-yl)carbonyl]cyclopropan-1-ol]
< 500 nM	< 0.5 µM			O=C(c1ccc(-c2cccc3ncccc23)cc1)N1CCN(C(=O)C2(O)CC2)CC1 [1-[(4-{[4-(quinolin-5-yl)phenyl]carbonyl}piperazin-1-yl)carbonyl]cyclopropan-1-ol]
< 500 nM	< 0.5 µM			O=C(c1ccc(-c2cnc3ccccc3c2Cl)cc1)N1CCN(C(=O)C2(O)CC2)CC1 [1-[(4-{[4-(4-chloroquinolin-3-yl)phenyl]carbonyl}piperazin-1-yl)carbonyl]cyclopropan-1-ol]
< 500 nM	< 0.5 µM			Cc1cc(C(=O)N2CCN(C(=O)C3(O)CC3)CC2)ccc1-c1ccc2scnc2c1 [1-[(4-{[4-(1,3-benzothiazol-5-yl)-3-methylphenyl]carbonyl}piperazin-1-yl)carbonyl]cyclopropan-1-ol]
< 500 nM	< 0.5 µM			O=C(c1ccc(-c2nc3ccc(F)cc3o2)cc1)N1CCN(C(=O)C2(O)CC2)CC1 [1-[(4-{[4-(6-fluoro-1,3-benzoxazol-2-yl)phenyl]carbonyl}piperazin-1-yl)carbonyl]cyclopropan-1-ol]
< 500 nM	< 0.5 µM			O=C(c1ccc(-c2cccc(NS(=O)(=O)c3ccccc3)c2)cc1)N1CCN(C(=O)C2(O)CC2)CC1 [N-{3-[4-({4-[(1-hydroxycyclopropyl)carbonyl]piperazin-1-yl}carbonyl)phenyl]phenyl}benzenesulfonamide]
< 500 nM	< 0.5 µM			Cn1cc2cc(-c3ccc(C(=O)N4CCN(C(=O)C5(O)CC5)CC4)cc3)ccc2n1 [1-[(4-{[4-(2-methyl-2H-indazol-5-yl)phenyl]carbonyl}piperazin-1-yl)carbonyl]cyclopropan-1-ol]
< 500 nM	< 0.5 µM			Cn1ccc2cc(-c3ccc(C(=O)N4CCN(C(=O)C5(O)CC5)CC4)c(C(F)(F)F)c3)ccc21 [1-[(4-{[4-(1-methyl-1H-indol-5-yl)-2-(trifluoromethyl)phenyl]carbonyl}piperazin-1-yl)carbonyl]cyclopropan-1-ol]
< 500 nM	< 0.5 µM			O=C(c1ccc(-c2nc3ccc(Cl)cc3o2)cc1)N1CCN(C(=O)C2(O)CC2)CC1 [1-[(4-{[4-(6-chloro-1,3-benzoxazol-2-yl)phenyl]carbonyl}piperazin-1-yl)carbonyl]cyclopropan-1-ol]
< 500 nM	< 0.5 µM			O=C(c1ccc(-c2ccc3scnc3c2)c(F)c1)N1CCN(C(=O)C2(O)CC2)CC1 [1-[(4-{[4-(1,3-benzothiazol-5-yl)-3-fluorophenyl]carbonyl}piperazin-1-yl)carbonyl]cyclopropan-1-ol]
< 500 nM	< 0.5 µM			COc1ccc2nc(-c3ccc(C(=O)N4CCN(C(=O)C5(O)CC5)CC4)cc3)cc(C)c2c1 [1-[(4-{[4-(6-methoxy-4-methylquinolin-2-yl)phenyl]carbonyl}piperazin-1-yl)carbonyl]cyclopropan-1-ol]
< 500 nM	< 0.5 µM			O=C(c1ccc(-c2ccc3cnccc3c2)cc1)N1CCN(C(=O)C2(O)CCC2)CC1 [1-[(4-{[4-(isoquinolin-6-yl)phenyl]carbonyl}piperazin-1-yl)carbonyl]cyclobutan-1-ol]
< 500 nM	< 0.5 µM			Cn1ccc2cc(-c3ccc(C(=O)N4CCN(C(=O)C5(O)CC5)CC4)nc3)ccc21 [1-[(4-{[5-(1-methyl-1H-indol-5-yl)pyridin-2-yl]carbonyl}piperazin-1-yl)carbonyl]cyclopropan-1-ol]
< 500 nM			≥ 0.5 µM	CC(C)n1ccc2cc(-c3ccc(C(=O)N4CCN(C(=O)C5(O)CC5)CC4)cc3Cl)ccc21 [1-{[4-({3-chloro-4-[1-(propan-2-yl)-1H-indol-5-yl]phenyl}carbonyl)piperazin-1-yl]carbonyl}cyclopropan-1-ol]
< 500 nM	< 0.5 µM			N#Cc1c[nH]c2ccc(-c3ccc(C(=O)N4CCN(C(=O)C5(O)CC5)CC4)cc3)cc12 [5-[4-({4-[(1-hydroxycyclopropyl)carbonyl]piperazin-1-yl}carbonyl)phenyl]-1H-indole-3-carbonitrile]

Source: patent US10457655B2, “Compounds and compositions for inhibition of FASN” (FORMA Therapeutics, Inc., priority 2013, dated 2019)
